Reference: patent publication US5798381A, “Biologically active bistramides, process for their production and their applications in therapy” (Institut Francais de Recherche Scientifique pour le …, priority 1993, dated 1998)
In brackets after ≈: the same amount, converted by molar mass.

Assays:
P388/dox (p388r) = test: Cytotoxicity, 50% inhibition of cell growth, P388/dox (resistant to doxorubicin); type: cell-based; settings: Mus musculus
Protocol: (§1) The cytoxicity results are recorded hereafter as the IC50 in μg/ml (concentration corresponding to a 50% inhibition of cell growth) on 6 tumoural lines namely KB, P388, P388/dox (resistant to doxorubicin), B16 and H429 and NSCLC-N6, which are human cells of non-small cell bronchopulmonary carcinoma type.
(§2) The determinations were carried out according to the protocol given in Cancer Chemother. Pharmacol. (1991) 28:283-292 by Roussakis et al.

HT 29 = test: Cytotoxicity, 50% inhibition of cell growth, HT 29; type: cell-based; settings: Homo sapiens; HT 29; read-out: IC50 (50% inhibition of cell growth)
Protocol: as §1, §2

L.(L) donovani = test: Anti-leishmanial activity in vitro; type: cell-based; settings: 500 μg/ml
[1] = system: Plasmodium vinckei petteri; test: PETERS test (4-day anti-malarial test in mice); type: in vivo, Plasmodium vinckei petteri in SWISS female white mice; settings: 15 mg/kg/day, 4 days, sub-cutaneous; for percentage inhibition of parasitemia: D4
Protocol: The animals used are SWISS (IFFA CREDO) female white mice weighing approximately 30 grams. Five mice are distributed per batch.
The species Plasmodium vinckei petteri used comes from the strain 279 BY (see article by Cambie G et al. in CR.Acad.Sci.PARIS 310, series III, 183-188). This plasmodia carries out a schizogonic cycle in 24 hours in a synchronous fashion. Using the freezing-thawing technique for infected blood, only the merozoite stage resists, the other forms being destroyed.
Observation of blood parasites takes place on stained smears carried out by taking a drop of blood from the tail. The smears are then stained with May-Grumwald-Giesma. Calculation of the parasitemia (number of parasites per 100 red blood corpuscles) is carried out on smears.
In these trials bistramide D is used in sterile physiological water containing 5% DMSO.
The product is injected by sub-cutaneous route in the thigh.
In order to verify the activity of the compound studied, the PETERS test is used which constitutes the reference for the screening of molecules with anti-malarial activity. (PETERS W. 1980. Chemotherapy and Drug resistance in Malaria, vol II, Academic Press).
After treatment for 4 days, the percentage of red blood corpuscles parasitized is compared on thin smears between the control batch and the treated batch. In this way a percentage inhibition is established. […]
a) injection of 10^7 of parasitized red blood corpuscles by I.P. route (D0) b) injection of Bistramide D at 15 mg/kg/day, for 4 days by sub-cutaneous route (D0, D1. D2, D3) c) checking the parasitemia on smears on D4

[2] = system: Plasmodium vinckei petteri; test: Study of the parasitic stage susceptible to bistramides; type: in vivo, Plasmodium vinckei petteri in SWISS female white mice; settings: for patent period: time necessary for the parasitemia to reach 1%: 15 mg/kg, control 5 D
Protocol: In order to appreciate the parasitic stage or stages the most susceptible to the action of the bistramides of the invention, the effect of these bistramides was studied on each parasitic stage predominant during the cell cycle for a given species of Plasmodium.
The results given hereafter concern the effect of bistramide B on the parasitic stages of Plasmodium vinckei petteri.
After infestation of the mice, five batches of five mice are constituted. Each batch is treated with a dose of 15 mg/kg of bistramide D at the moment when one of the stages predominates.
In addition, the following batches are prepared: one control batch, one batch of merozoites, one ring batch, one batch of young trophozoites, one batch of middle trophozoites and one batch of old trophozoites.
The following are evaluated: the retardation of parasitemia or the patent period as the time in days necessary for the parasitemia to reach 1%.

SMILES: C/C=C/C(O)CC1CCC(C)C(CC(=O)NCC(O)C(C)C(=O)NCCCC2OC3(CCCC(CCC(C)/C=C(\C)C(C)O)O3)CCC2C)O1 (stereo not drawn) [Bistramide D]
- IC50 (P388/dox (p388r)): 5.82 µg/mL (≈ 8.23 µM)
- IC50 (HT 29): 2.76 µg/mL (≈ 3.9 µM)
- anti-leishmanial activity (L.(L) donovani): has an anti-leishmanial activity in vitro
- percentage inhibition of parasitemia ([1]; trial A): 85%
- parasitemia, treated batch on D4 ([1]; trial A, controls 4%): 0.64%
- percentage inhibition of parasitemia ([1]; trial B): 87%
- parasitemia, treated batch on D4 ([1]; trial B, controls 4%): 0.50%
- percentage inhibition of parasitemia ([1]; trial C): 81%
- parasitemia, treated batch on D4 ([1]; trial C, controls 1.2%): 0.23%
- stage selectivity / significance versus control batch ([2]; KRUSKAL-WALLIS unilateral test, middle and old trophozoite): selective activity
- patent period: time necessary for the parasitemia to reach 1% ([2]; merozoite batch): 5 D
- patent period: time necessary for the parasitemia to reach 1% ([2]; middle trophozoite batch): 6.25 D
- patent period: time necessary for the parasitemia to reach 1% ([2]; old trophozoite batch): 6.2 D
- patent period: time necessary for the parasitemia to reach 1% ([2]; ring batch): 5.4 D
- patent period: time necessary for the parasitemia to reach 1% ([2]; young trophozoite batch): 5.6 D
